In patent US20220298146A1, “HETEROCYCLIC DERIVATIVE AND USE THEREOF” (Transthera Sciences (Nanjing), Inc., priority 2019, published 2022):
pIC50: −log10 of the molar value.

How the values were obtained:
[1] = target: T1, LCK (h) (Homo sapiens, UniProt P06239); test: Enzymatic activity assay, LCK (h) kinase, [γ-33P]-ATP; type: biochemical; conditions: 10 μM [γ-33P]-ATP, 40 min, room temperature; read-out: Inhibitory Activity on LCK (h) kinase, IC50
T1 construct: purchased
Method: (§1) Test samples: the compounds of the present invention, having structures and preparation methods shown above.
Preparation of Compound Stock Solutions:
(§2) Compounds were each dissolved in 100% DMSO to prepare stock solutions with a maximum concentration of 500 μM.
Preparation of Compound Working Solutions:
(§3) The compound stock solutions were diluted to final concentrations of 500 μM, 150 μM, 50 μM, 15 μM, 5 μM, 1.5 μM, 0.5 μM, 0.15 μM and 0.05 μM to prepare compound working solutions (50×).
Preparation of Different Enzymatic Reaction Solutions:
LCK (h) enzyme was dissolved in a mixture of 50 mM Tris (pH 7.5), 0.1 mM EGTA, 0.1 mM Na3VO4 and 250 μM KVEKIGEGTYGVVYK to prepare an enzyme solution with a final concentration of 45 nM. An Mg/ATP mixture of 10 mM magnesium acetate and 10 μM [γ-^33P]-ATP was used to activate the enzymatic reaction.
(§4) The compound working solutions were added to a 384-well plate, with final concentrations of 10000 nM, 3000 nM, 1000 nM, 300 nM, 100 nM, 30 nM, 10 nM, 3 nM and 1 nM, respectively, and then different enzymatic reaction solutions prepared according to the above conditions were added. The reaction solutions were incubated at room temperature for 40 min, and then 0.5% phosphoric acid solutions were added to terminate the reaction. 10 μL of the reaction solution was added dropwise to P30 filter paper which was washed 4 times with a 0.425% phosphoric acid solution and once with methanol and then placed in a scintillation counter for detection. Gray analysis was performed on the results with Image J software, and IC50 values were calculated with GraphPad 5.0 software.

[2] = target: T2, H1299 cell pAxl (Homo sapiens, UniProt P30530); test: Inhibitory activity on cell pAxl (H1299 cells, hGAS6 stimulation, Western Blot); type: cell-based; conditions: hGAS6 200 ng/mL, tested at 1.1, 3.3, 10 and 30 nM, read-out: Inhibitory Activity on Cell pAx1, IC50
T2 construct: endogenous in cells; host or cells: H1299
T2 sequence (P30530 26-894): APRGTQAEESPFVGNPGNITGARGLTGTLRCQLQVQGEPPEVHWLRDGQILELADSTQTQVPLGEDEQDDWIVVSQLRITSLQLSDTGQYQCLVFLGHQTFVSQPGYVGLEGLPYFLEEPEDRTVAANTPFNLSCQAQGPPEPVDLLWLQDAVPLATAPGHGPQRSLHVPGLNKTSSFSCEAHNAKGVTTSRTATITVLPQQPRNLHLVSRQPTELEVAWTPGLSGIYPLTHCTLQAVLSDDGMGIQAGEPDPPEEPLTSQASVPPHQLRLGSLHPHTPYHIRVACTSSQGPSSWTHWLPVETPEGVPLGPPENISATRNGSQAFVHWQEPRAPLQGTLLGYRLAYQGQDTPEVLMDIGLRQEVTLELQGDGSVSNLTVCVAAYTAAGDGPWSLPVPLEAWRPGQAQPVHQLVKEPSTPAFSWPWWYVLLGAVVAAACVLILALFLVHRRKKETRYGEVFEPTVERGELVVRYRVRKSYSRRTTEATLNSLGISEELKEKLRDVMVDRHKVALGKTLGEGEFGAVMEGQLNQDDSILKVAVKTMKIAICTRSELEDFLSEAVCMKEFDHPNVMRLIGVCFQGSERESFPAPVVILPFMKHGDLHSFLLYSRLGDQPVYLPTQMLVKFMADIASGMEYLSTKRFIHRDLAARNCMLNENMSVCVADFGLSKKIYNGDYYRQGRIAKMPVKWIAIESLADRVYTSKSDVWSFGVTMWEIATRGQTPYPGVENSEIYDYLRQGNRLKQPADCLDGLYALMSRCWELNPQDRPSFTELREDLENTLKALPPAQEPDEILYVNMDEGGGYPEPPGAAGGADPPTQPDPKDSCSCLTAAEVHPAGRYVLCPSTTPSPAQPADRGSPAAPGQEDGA
Method: H1299 is a non-small cell lung cancer cell.
Test samples: the compounds of the present invention, having structures shown above.
Test instruments: protein electrophoresis apparatus (made by Bio Rad), membrane transfer apparatus (made by Bio Rad), exposure apparatus (made by Tanon), and CO2 cell incubator (made by Thermo).
H1299 cells were inoculated into a 6-well plate (containing 10% FBS 1640 medium, 5×10^5 cells per well) and adherently cultivated at 37° C. and 5% CO2 for 18 h. The cells were starved overnight, and compounds with different concentrations were added. The compounds had final concentrations of 1.1 nM, 3.3 nM, 10 nM and 30 nM, with DMSO having a final concentration of 1‰. There was a medium containing 10‰ DMSO in the negative control well. The cells were incubated at 37° C. and 5% CO2 for 60 min, and then hGAS6 (R&D, final concentration: 200 ng/mL) was added to each well. The cells were further incubated for 60 min, and then the total protein of the cells was extracted for Western Blot experiment. IC50 values were calculated with GraphPad 5.0 software, and the inhibitory activities of the compounds on cell pAxl were detected.

[3] = target: T3, Ron (h) (Homo sapiens, UniProt Q04912); test: Enzymatic activity assay, Ron (h) kinase, [γ-33P]-ATP; type: biochemical; conditions: 10 μM [γ-33P]-ATP, 40 min, room temperature; read-out: Inhibitory Activity on Ron (h) kinase, IC50
T3 construct: purchased
T3 sequence (Q04912 25-1400): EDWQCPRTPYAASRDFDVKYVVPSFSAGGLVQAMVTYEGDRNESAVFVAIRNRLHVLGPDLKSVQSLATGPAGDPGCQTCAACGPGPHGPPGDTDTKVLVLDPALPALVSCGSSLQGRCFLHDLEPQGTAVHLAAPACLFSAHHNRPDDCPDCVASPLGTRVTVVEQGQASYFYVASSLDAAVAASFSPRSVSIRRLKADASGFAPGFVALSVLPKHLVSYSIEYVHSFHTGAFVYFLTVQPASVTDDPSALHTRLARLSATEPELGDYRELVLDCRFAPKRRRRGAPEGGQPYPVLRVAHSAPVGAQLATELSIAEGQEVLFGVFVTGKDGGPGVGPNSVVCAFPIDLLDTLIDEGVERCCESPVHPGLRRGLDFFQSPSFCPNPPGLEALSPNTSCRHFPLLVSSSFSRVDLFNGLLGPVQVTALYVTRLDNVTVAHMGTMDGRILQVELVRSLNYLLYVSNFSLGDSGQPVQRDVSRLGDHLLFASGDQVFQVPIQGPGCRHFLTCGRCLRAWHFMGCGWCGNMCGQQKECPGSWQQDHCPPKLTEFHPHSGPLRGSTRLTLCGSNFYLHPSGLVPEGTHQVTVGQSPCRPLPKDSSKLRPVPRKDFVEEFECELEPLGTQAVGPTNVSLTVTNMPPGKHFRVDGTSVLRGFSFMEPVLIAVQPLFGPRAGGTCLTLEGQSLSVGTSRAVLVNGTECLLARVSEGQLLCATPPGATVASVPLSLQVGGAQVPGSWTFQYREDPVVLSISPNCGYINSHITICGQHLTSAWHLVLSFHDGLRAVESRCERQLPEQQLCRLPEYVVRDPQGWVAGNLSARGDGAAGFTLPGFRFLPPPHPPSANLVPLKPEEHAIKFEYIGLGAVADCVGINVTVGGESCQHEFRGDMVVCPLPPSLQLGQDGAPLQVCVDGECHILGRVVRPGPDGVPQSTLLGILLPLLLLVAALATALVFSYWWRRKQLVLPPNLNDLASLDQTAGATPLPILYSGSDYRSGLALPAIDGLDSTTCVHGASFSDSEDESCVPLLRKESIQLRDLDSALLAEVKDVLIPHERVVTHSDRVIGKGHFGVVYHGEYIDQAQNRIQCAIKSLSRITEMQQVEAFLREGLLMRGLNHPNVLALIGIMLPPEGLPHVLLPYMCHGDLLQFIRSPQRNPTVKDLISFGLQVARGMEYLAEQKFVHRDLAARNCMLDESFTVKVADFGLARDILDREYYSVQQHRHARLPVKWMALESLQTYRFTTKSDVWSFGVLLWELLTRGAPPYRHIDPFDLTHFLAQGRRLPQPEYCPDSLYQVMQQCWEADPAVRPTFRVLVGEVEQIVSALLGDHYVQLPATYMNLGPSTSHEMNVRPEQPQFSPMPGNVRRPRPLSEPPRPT
Method: as §1
(1) Preparation of Compound Stock Solutions
as §2
(2) Preparation of Compound Working Solutions
as §3
(3) Preparation of Different Enzymatic Reaction Solutions
Ron (h) enzyme was dissolved in a mixture of 8 mM MOPS (pH 7.0), 0.2 mM EDTA and 250 μM GGMEDIYFEFMGGKKK to prepare an enzyme solution with a final concentration of 40.4 nM. An Mg/ATP mixture of 10 mM magnesium acetate and 10 μM [γ-^33P]-ATP was used to activate the enzymatic reaction.
as §4

T1 sequence (P06239 whole entry): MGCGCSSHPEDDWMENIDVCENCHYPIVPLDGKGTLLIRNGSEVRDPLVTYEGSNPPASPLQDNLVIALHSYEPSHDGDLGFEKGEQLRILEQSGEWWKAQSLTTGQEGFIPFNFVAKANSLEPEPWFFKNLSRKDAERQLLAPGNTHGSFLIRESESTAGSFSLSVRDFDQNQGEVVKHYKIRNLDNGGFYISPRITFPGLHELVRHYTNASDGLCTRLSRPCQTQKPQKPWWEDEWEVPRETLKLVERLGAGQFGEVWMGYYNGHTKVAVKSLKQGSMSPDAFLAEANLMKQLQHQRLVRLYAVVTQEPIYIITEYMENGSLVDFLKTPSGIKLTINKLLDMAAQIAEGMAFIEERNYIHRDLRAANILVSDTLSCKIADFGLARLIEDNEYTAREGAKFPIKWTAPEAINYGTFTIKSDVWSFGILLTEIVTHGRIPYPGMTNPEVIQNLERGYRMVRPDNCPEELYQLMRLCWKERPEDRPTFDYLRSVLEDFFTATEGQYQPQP

| SMILES | pIC50 [1] | pIC50 [2] | pIC50 [3] |
| --- | --- | --- | --- |
| C=CCn1cc(-c2ccc(F)cc2)c(=O)c(C(=O)Nc2ccc(Oc3ccnc(N)c3Cl)nc2)n1 [Compound 39, 1-allyl-N-(6-((2-amino-3-chloropyridin-4-yl)oxy)pyridin-3-yl)-5-(4-fluorophenyl)-4-oxo-1,4-dihydropyridazine-3-carboxamide] | 7.02 | 8.48 to 8.96 | 7.92 |
| CC(C)n1cc(-c2ccc(F)cc2)c(=O)c(C(=O)Nc2ccc(Oc3ccnc(N)c3Cl)nc2)n1 [Compound 13, N-(6-((2-amino-3-chloropyridin-4-yl)oxy)pyridin-3-yl)-5-(4-fluorophenyl)-1-isopropyl-4-oxo-1,4-dihydropyridazine-3-carboxamide] | 6.88 | 8.48 to 8.96 | 7.80 |
| C=CCn1cc(-c2ccc(F)cc2)c(=O)c(C(=O)Nc2ccc(Oc3ccnc(N)c3Cl)cn2)n1 [Compound 35, 1-allyl-N-(5-((2-amino-3-chloropyridin-4-yl)oxy)pyridin-2-yl)-5-(4-fluorophenyl)-4-oxo-1,4-dihydropyridazine-3-carboxamide] | 7.70 | > 8.96 | 8.30 |
| CC(C)n1cc(-c2ccc(F)cc2)c(=O)c(C(=O)Nc2ncc(Oc3ccnc(N)c3Cl)cn2)n1 [Compound 12, N-(5-((2-amino-3-chloropyridin-4-yl)oxy)pyrimidin-2-yl)-5-(4-fluorophenyl)-1-isopropyl-4-oxo-1,4-dihydropyridazine-3-carboxamide] | 7.28 | 8.48 | 7.72 |
| C=CCn1cc(-c2ccc(F)cc2)c(=O)c(C(=O)Nc2ncc(Oc3ccnc(N)c3Cl)cn2)n1 [Compound 37] | – | 8.96 | 7.92 |

More lines, now with the values ahead:

| pIC50 [1] | pIC50 [2] | pIC50 [3] | SMILES |
| --- | --- | --- | --- |
| 7.62 | > 8.96 | 8.15 | Nc1nccc(Oc2ccc(NC(=O)c3nn(C4CC4)cc(-c4ccc(F)cc4)c3=O)nc2)c1Cl [Compound 17, N-(5-((2-amino-3-chloropyridin-4-yl)oxy)pyridin-2-yl)-1-cyclopropyl-5-(4-fluorophenyl)-4-oxo-1,4-dihydropyridazine-3-carboxamide] |
| 7.70 | > 8.96 | 8.70 | CC(C)n1cc(-c2ccc(F)cc2)c(=O)c(C(=O)Nc2ccc(Oc3ccnc(N)c3Cl)cn2)n1 [Compound 11, N-(5-((2-amino-3-chloropyridin-4-yl)oxy)pyridin-2-yl)-5-(4-fluorophenyl)-1-isopropyl-4-oxo-1,4-dihydropyridazine-3-carboxamide] |
| – | 8.48 | 7.85 | Nc1nccc(Oc2cnc(NC(=O)c3nn(C4CC4)cc(-c4ccc(F)cc4)c3=O)nc2)c1Cl [Compound 18, N-(5-((2-amino-3-chloropyridin-4-yl)oxy)pyrimidin-2-yl)-5-(4-fluorophenyl)-1-cyclopropyl-4-oxo-1,4-dihydropyridazine-3-carboxamide] |
| 7.59 | 8.00 to 8.48 | 7.77 | Cn1cc(-c2ccc(F)cc2)c(=O)c(C(=O)Nc2ccc(Oc3ccnc(N)c3Cl)cn2)n1 [Compound 33, N-(5-((2-amino-3-chloropyridin-4-yl)oxy)pyridin-2-yl)-5-(4-fluorophenyl)-1-methyl-4-oxo-1,4-dihydropyridazine-3-carboxamide] |
| 6.98 | 8.00 to 8.48 | 7.19 | Nc1nccc(Oc2ccc(NC(=O)c3nn(C4CC4)cc(-c4ccc(F)cc4)c3=O)cn2)c1Cl [Compound 19, N-(6-((2-amino-3-chloropyridin-4-yl)oxy)pyridin-3-yl)-1-cyclopropyl-5-(4-fluorophenyl)-4-oxo-1,4-dihydropyridazine-3-carboxamide] |
